Measurements as given in patent US20210163489A1, “PYRAZOLOPYRIMIDINE DERIVATIVES AND THE COMPOSITIONS AND METHODS OF TREATMENT REGARDING THE SAME” (NysnoBio Ireland DAC, priority 2016, published 2021).

Experiments:
[1] = Metabolic stability in rat liver microsomes (RLM); assay type: in vitro ADME; settings: rat, liver microsomes, pH 7.4, 1 μM compound, 1.0 mg/mL microsome, NADPH; read-out: RLM t1/2
Experimental: (§1) Compounds were also tested for metabolic stability in both rat liver microsomes (RLM) and human liver microsomes (HLM) and their half-life calculated (See Table 6). The assay was performed as follows. The total volume for each incubation was 250 μL. A 100 μM DMSO solution of compound (diluted from 10 mM stock solution) was spiked into 50 mM KH2PO4 (pH 7.4) buffer containing liver microsome at a concentration of 1.0 mg/mL. The reaction was initiated by the addition of 50 μL of 1 mM NADPH. The final concentration of each compound was 1 μM (1% DMSO). The positive controls, phenacetin for CYP1A2, diclofenac for CYP2C9, omeprazole for CYP2C19, dextromethorphan for CYP2D6 and midazolam for CYP3A4 were added to a separate tube with the final substrate concentrations of 1 μM (1% DMSO) for evaluating the enzyme activities in the liver microsomes. At 0, 15, 30 and 60 min, an aliquot of 15 μL reaction mixtures were removed and 200 μL of methanol (with internal standard of 25 ng/mL propranolol) was added to quench the reaction. The resulting mixture was centrifuged and supernatant was used for LC-MS/MS analysis.
(§2) The signals for each compound, or the metabolites for the probe substrates and the internal standard were integrated and the peak area ratios to internal standard were generated. Percent parent remaining at a specified timepoint was calculated based on the peak area ratios at time 0 (as 100%) for in vitro metabolic stability studies in liver microsome and hepatocyte. The observed rate constant (kobs) for the metabolism of substrates was calculated by plotting the natural log of percentage substrate remaining versus time of incubation with the slope being kobs. The half-life (T1/2) was calculated according to the following equation: […]

[2] = Metabolic stability in human liver microsomes (HLM); assay type: in vitro ADME; settings: pH 7.4, 1 μM compound, 1.0 mg/mL microsome, NADPH, read-out: HLM t1/2
Experimental: as §1, §2

[3] = test system: S-HeLa stably expressing a YFP-Parkin fusion protein; test: Cell rating experiments: Parkin-dependent induction of mitophagy (Tomm20 immunofluorescence); assay type: cell-based; design: key to Cell Ratings [Example 4] (cell activity): +++: >70% effect at 10 μM; ++: 69%-31% effect at 10 μM; +: <30% effect at 10 μM; −: negative at 10 μM; settings: Tomm20 negative cells, 6 μM CCCP, compound at 10 μM; for activation at 10 µM: 20 h, read-out: Cell Ratings [Example 4] (cell activity); for Cell Ratings [Example 4] (cell activity): 20 hours
Experimental: Compounds: All compounds were dissolved in DMSO to a concentration of 25 mM and stored at −20° C. Compound 1 is N,N′-(1-phenyl-1H-1,2,4-triazole-3,5-diyl)dibenzamide.
Cell Culture: S-HeLa stably expressing a YFP-Parkin fusion protein (kindly donated by Prof. Richard J. Youle, Porter Neuroscience Research Center, Bethesda, Md., USA) were utilised to assess Parkin-dependent induction of mitophagy. 4000 cells were seeded in each well of a 96 well plate (Parkin Elmer ViewPlate-96 F TC, cat. N. 6005182) and left to grow for 24 hours.
Subsequently cells were incubated with vehicle (DMSO) or 6 μM CCCP for 1 hour prior to adding increasing concentrations of compound (1, 2.5, 5, 10 μM), each condition run in replicate of five. After 20 hours cells were processed for immunofluorescence.
Immunofluorescence: Samples were fixed in 4% PFA for 25 minutes RT and permeabilized with PBS 0.1% Triton-X100 for 3 minutes on ice, blocked with PBS 3% BSA, 0.3% Triton-X100 for 2 hours RT, followed by overnight incubation with primary antibody at 4° C. ([…] rabbit Tomm20 antibody FL-145; Santa Cruz Biotechnology) diluted in PBS 0.1% BSA, 0.3% Triton-X100. The secondary goat anti-rabbit antibody conjugated with DyLight 649 (Jackson ImmunoResearch) was applied for 1 hour at room temperature at a concentration of […] in conjunction with […] Hoechst33342.
Cells were imaged using an Olympus ScanR automated microscope equipped with motorised stage and 20x APO planar objective. 18 images were acquired for each well using the following combination of excitation/emission filters: Hoechst33342 was excited through a 350/50 nm band pass filter and fluorescence intensity was collected through a 460/30 band pass filter. YFP was excited through a 500/20 nm band pass filter and fluorescence intensity was collected through a 540/35 band pass filter. DyLight 649 was excited through a 640/30 nm band pass filter and fluorescence intensity was collected through 700/75 band pass filter. Images were processed and analysed as described in the Image Analysis section.
Image analysis: Images were processed and analysed using Columbus HCS Analysis software (Version 2.5.0., PerkinElmer) as follows:
Tomm20 fluorescence intensity was corrected using the parabola algorithm. Hoechst 33342 fluorescence was used to identify and count cells. Cells were segmented according to Tomm20 fluorescence intensity. Spot detection was optimized to recognize number and total cellular area of Tomm20 stained clusters (mitochondria).
Tomm20 staining intensity, spot numbers and spot area were used to train a linear classifier algorithm that discriminated between Tomm20 positive (high intensity, spot numbers and spot area) and Tomm20 negative cells (low intensity, spot numbers and spot area).
Bar graphs were generated reporting the number of Tomm20 negative cells expressed as percentage of total cells imaged for each well (FIGS. 3 and 6). Results were shown as mean ±SD of a representative experiment performed in triplicate. +++ indicates >70% effect at 10 μM; ++ indicates 69%-31% effect at 10 μM; + indicates <30% effect at 10 μM; − indicates negative at 10 μM; NA=not available.

Cc1nc2c(-c3ccccc3)c(C)nn2c(S)c1Cc1ccccc1 [Compound A, 6-benzyl-2,5-dimethyl-3-phenylpyrazolo[1,5-a]pyrimidine-7-thiol]
half-life at 1 μM [1]: 84.5 min | half-life at 1 μM [2]: 63 min

Cc1nc2c(-c3ccccc3)c(C)nn2c(S)c1Cc1ccncc1 [Compound AA, 2,5-dimethyl-3-phenyl-6-(4-pyridylmethyl)pyrazolo[1,5-a]pyrimidine-7-thiol]
activation at 10 µM [3]: > 70% | half-life at 1 μM [1]: 112 min | half-life at 1 μM [2]: 65.4 min

Cc1nc2c(-c3ccccc3)c(C)nn2c(S)c1Cc1ccccn1 [Compound BB, 2,5-dimethyl-3-phenyl-6-(2-pyridylmethyl)pyrazolo[1,5-a]pyrimidine-7-thiol]
Cell Ratings [Example 4] (cell activity) [3]: −

Cc1nn2c(S)c3c(nc2c1-c1ccccc1)CN(C)CC3 [Compound C3]
half-life at 1 μM [1]: 277 min | half-life at 1 μM [2]: 154 min

Cc1nc2c(-c3ccccc3)cnn2c(S)c1Cc1ccccc1 [Compound CC, 6-benzyl-5-methyl-3-phenyl-pyrazolo[1,5-a]pyrimidin-7-thiol]
activation at 10 µM [3]: > 70% | half-life at 1 μM [1]: 55.9 min | half-life at 1 μM [2]: 22.9 min

Cc1cc(S)n2ncc(-c3ccccc3)c2n1 [Compound C]
activation at 10 µM [3]: 31 to 69%

Cc1nc2c(-c3cccnc3)c(C)nn2c(S)c1Cc1ccccc1 [Compound D3]
half-life at 1 μM [1]: 63 min

Cc1nn2c(S)c(Cc3ccccc3)cnc2c1-c1ccccc1 [Compound DD, 6-benzyl-2-methyl-3-phenyl-pyrazolo[1,5-a]pyrimidin-7-thiol]
activation at 10 µM [3]: 31 to 69%

COc1ccccc1-c1c(C)nn2c(S)cc(C)nc12 [Compound D]
activation at 10 µM [3]: < 30%

Cc1nn2c(S)c(CCc3ccccc3)cnc2c1-c1ccccc1 [Compound E3]
half-life at 1 μM [1]: 3 min

Cc1cc(C)c2c(n1)nn1c(S)cc(C)nc21 [Compound E]
activation at 10 µM [3]: > 70% | half-life at 1 μM [1]: 55.9 min | half-life at 1 μM [2]: 173 min

Cc1cc(S)c2ncc(-c3ccc(F)cc3)n2n1 [Compound F3]
half-life at 1 μM [1]: 67 min

Cc1nn2c(S)c(CC(C)C)cnc2c1-c1ccccc1 [Compound G3]
half-life at 1 μM [1]: 22 min

CCc1nn2c(S)cc(C)nc2c1-c1ccc(F)cc1 [Compound I]
activation at 10 µM [3]: 31 to 69%

Cc1nn2c(S)c3c(nc2c1-c1ccccc1)CCCC3 [Compound K]
activation at 10 µM [3]: 31 to 69%

Cc1cc(S)n2ncc(-c3ccc(F)cc3)c2n1 [Compound L, 3-(4-fluorophenyl)-5-methylpyrazolo[1,5-a]pyrimidine-7-thiol]
activation at 10 µM [3]: > 70% | half-life at 1 μM [1]: 68 min | half-life at 1 μM [2]: 161 min

Cc1cc2nc(C)c(Cc3ccc(Cl)cc3)c(O)n2n1 [Compound P, 6-[(4-chlorophenyl)methyl]-2,5-dimethyl-pyrazolo[1,5-a]pyrimidin-7-ol]
activation at 10 µM [3]: < 30%

Cc1cc2nc(C)c(Cc3ccc(Cl)cc3)c(S)n2n1 [Compound R, 6-[(4-chlorophenyl)methyl]-2,5-dimethyl-pyrazolo[1,5-a]pyrimidine-7-thiol]
activation at 10 µM [3]: < 30%

Cc1ccc(-c2cnn3c(S)c4c(nc23)CN(C)CC4)cc1 [Compound S3]
half-life at 1 μM [1]: > 500 min

Cc1nc2c(-c3ccccc3)cnn2c(O)c1Cc1ccccc1 [Compound U, 6-benzyl-5-methyl-3-phenyl-pyrazolo[1,5-a]pyrimidin-7-ol]
activation at 10 µM [3]: 31 to 69% | half-life at 1 μM [1]: 29 min

Sc1c(Cc2ccccc2)cnc2c(-c3ccccc3)cnn12 [Compound Z, 6-benzyl-3-phenyl-pyrazolo[1,5-a]pyrimidin-7-thiol]
activation at 10 µM [3]: 31 to 69%

Cc1nc2c(-c3ccccn3)c(C)nn2c(O)c1Cc1ccccc1 [FF]
activation at 10 µM [3]: < 30%

Cc1nn2c(O)cc(C(C)(C)C)nc2c1-c1ccc(Cl)cc1 [F]
activation at 10 µM [3]: 31 to 69%

CC(C)(C)c1cc(O)n2ncc(-c3ccccc3)c2n1 [J]
activation at 10 µM [3]: 31 to 69%

Cc1nc2c(C(F)(F)F)c(C)nn2c(S)c1Cc1ccccc1 [LL]
activation at 10 µM [3]: 31 to 69%

Cc1nc2c(-c3ccncc3)c(C)nn2c(S)c1Cc1ccccc1 [MM]
Cell Ratings [Example 4] (cell activity) [3]: −

COc1ccc(-c2cnn3c(S)cc(C)nc23)cc1 [SS]
half-life at 1 μM [1]: 12.9 min | half-life at 1 μM [2]: 44.4 min

Cc1cc2nc(C)c(Cc3ccccc3)c(S)n2n1 [S]
activation at 10 µM [3]: < 30%

Cc1ccc(-c2cnn3c(S)cc(C)nc23)cc1 [TT]
half-life at 1 μM [1]: 8.1 min | half-life at 1 μM [2]: 11.8 min

Cc1nc2c(-c3ccccc3)c(C)nn2c(O)c1Cc1ccccc1 [T]
activation at 10 µM [3]: < 30%

Cc1cc(S)n2ncc(-c3cccc(N(C)C)c3)c2n1 [UU]
half-life at 1 μM [1]: 4.2 min | half-life at 1 μM [2]: 33 min

Cc1nn2c(S)c(C)c(Cc3ccccc3)nc2c1-c1ccccc1 [ZZ]
half-life at 1 μM [1]: 44 min
